From patent publication US20140271734A1, “BILE ACID RECYCLING INHIBITORS FOR TREATMENT OF BARRETT'S ESOPHAGUS AND GASTROESOPHAGEAL REFLUX DISEASE” (LUMENA PHARMACEUTICALS, INC., priority 2013, published 2014)
Marks after values point to notes of the source that are not given here.

Columns and labels:
[1] = tested on: Cholesterol 7-α hydroxylase; experiment: Cholesterol 7-α hydroxylase activity in liver microsomes of treated dogs; format: in vivo, beagle dogs; settings: 14 Days; for Cholesterol 7a-hydroxylase: n=8
Description: Healthy female and male beagle dogs in the age range of 8 to 10 months were used. The animals were acclimated for at least four weeks before dose administration. Four female and four male dogs per dose group (groups 2-5) were given single daily doses of LUM001 at 1, 4, 12 and 30 mg free form/kg for 13 days. Animals in the control group (group 1) were given the same number of empty capsules as the animals of group 5 to treat all dose groups the same.
At the end of the study, animals were anesthetized, their livers removed and flash frozen and stored at −80 C. Homogenates of three gram liver tissue samples were prepared in 25 ml homogenization buffer [0.1 M potassium phosphate buffer, pH 7.2, containing 0.1 M sucrose, 50 mM KCl, 50 mM NaF, 5 mM ethylene glycol-bis((3-aminoethyl ether)-N,N,N′,N′-tetraacetic acid (EGTA), 1 mM EDTA, 3 mM dithiothreitol (DTT), and 1 mM phenylmethylsulfonyl fluoride (PMSF)]. A microsomal fraction was prepared by centrifugation at 10,000×g for ten minutes. The supernatant was subjected to centrifugation at 105,000×g for two hours. The microsomal fraction was resuspended in a 0.1 M Na tetrapyrophosphate buffer (pH 10), with 50 mM NaF, and 1 mM EDTA, and subjected to centrifugation for one hour at 105,000×g. The microsomal fraction was resuspended in the homogenization buffer, and assayed for protein content by Coomassie Protein Plus Assay reagent.
Liver microsomes (1 mg) or 7-α-hydroxycholesterol standard solutions were preincubated for five minutes at 37° C. in a rocking water bath with 500 μl 5× buffer, 1.7 ml water, and 50 μl 0.1% (w/v) cholesterol as substrate in excess. The 5× buffer consists of 0.42 M Na2HPO4, 0.25 mM NaF, 0.08 M KH2PO4, 5 mM EDTA and 10 mM DTT. The reaction tubes were incubated at 37° C. in a rocking water bath throughout the remainder of the assay protocol, with cessation of rocking only for the period of time needed to add solutions. After the preincubation period, 250 μl of 10 mM NADPH was added and incubated for 5 minutes to allow enzymatic conversion of the cholesterol substrate to 7-α-hydroxycholesterol by endogenous 7-α-hydroxylase. The reaction was stopped by addition of 75 μl of 20% sodium cholate.
After four minutes, 25 μl of 100 μM 20-α-hydroxycholesterol was added to each tube as an internal recovery standard. The tubes were allowed to rock briefly in the water bath to mix, then 40 μl of 25 U/ml cholesterol oxidase was added and the tubes were incubated for ten minutes to convert 7-α-hydroxycholesterol and 20-α-hydroxycholesterol to their ketone forms, 7-α-hydroxycholesten-3-one and 20-α-hydroxycholesten-3-one. After the enzymatic reactions were completed, the ketone products were isolated by four sequential extractions in 20, 10, 10 and 10 ml petroleum ether, respectively. The collected volumes were evaporated to dryness under a flow of nitrogen gas between each extraction step using a heat block set at 50° C. The final dried samples were resuspended in 125 μl mobile phase solution consisting of 70:30 acetonitrile/methanol for analysis by reversed phase HPLC. Chromatography was performed on a 4.6×250 mm Beckman Ultrosphere ODS reverse phase column in mobile phase solution. The analyte, 7-α-hydroxy-4-cholesten-3-one, is quantified by absorption at 254 nm using the internal standard 20-α-hydroxy-4-cholesten-3-one to control for extraction efficiency.

[2] = tested on: serum total bile acid (SBA); experiment: Time to onset of activity of LUM001 on postprandial serum bile acids in dogs; format: in vivo, beagle dogs; settings: for Serum bile acids, mean: fed at 0 min
Description: LUM001 was dissolved in water at concentrations that required the administration of 0.2 ml/kg of solution. Solutions were placed into gelatin capsules, Torpac Inc., size 13 Batch 594, East Hanover N.J., and administered orally.
Male beagle dogs were obtained from Covance Research Products, Cumberland Va. or Marshall Farms USA, Inc., North Rose N.Y. A total of 20 dogs, 1 to 5 years old, 6.8 to 15.6 kg body weight, were used in these experiments. The dogs were conditioned to a 12 hour light/dark cycle and maintained on a feeding restriction of 1 hour per day access to food (Richman Standard Certified Canine Diet #5007, PMI Nutrition, Inc., St. Louis Mo.) from 7 to 8 AM. They were trained to eat a special meal promptly within 20 minutes when presented (1 can. 397 g, Evanger's 100% Beef for Dogs, Evanger's Dog and Cat Food Co., Inc., Wheeling Ill., mixed with 50 g of sharp cheddar cheese.).
SBA was measured by an enzymatic assay. SBA values are expressed as μg of total bile acids/ml of serum.
To estimate the details of this plateau, 6 dogs were given a test meal and blood samples for SBA measurement were collected at −30, 0, 30, 60, 65, 70, 80, 90, 120, 180, 240, 360, 480, 720, 1410 and 1440 minutes from the time of feeding. Any remaining food was removed 20 min after it was first presented to the dogs. To establish a method for extending the elevated plateau of SBA, 6 dogs were given the meal at 0 hr and an additional ½ size meal again 4 hr after their first meal. Blood samples were taken at 0, 1, 2, 3, 4, 4.5, 6, 7 and 8 hr. The curves for SBA level vs time obtained in these experiments were used as references for determining blood sampling times in experiments with LUM001. Wherever possible, experimental design permitting, in experiments with test compound, each dog served as its own simultaneous control, and the mean 1 hr SBA value served as the reference to which all other mean values were compared.
LUM001 was administered at 0, 0.01, 0.05, 0.2 and 1 mg/kg, p.o. to dogs, n=6, 1 hr after feeding the standard experimental meal. Blood samples for SBA measurement were taken at −30, 0, 30, 60, 65, 70, 80, 90, 120 and 180 minutes from the time of feeding. Each dog served as its own control, and mean SBA levels were compared to the mean SBA level at 60 minutes.

[3] = tested on: Aspartate Aminotransferase (ASAT); experiment: Plasma aspartate aminotransferase in ZDF rats, week 3; format: in vivo; settings: twice daily oral gavage
[4] = tested on: GLP-2; experiment: GLP-2 in plasma of non-fasted ZDF rats, 2 weeks treatment; format: in vivo
[5] = tested on: Alanine Aminotransferase (ALAT); experiment: Plasma alanine aminotransferase in ZDF rats, week 3; format: in vivo; settings: twice daily oral gavage
[6] = tested on: Alkaline Phosphatase (ALP); settings: twice daily oral gavage; Week 3
Description: This study was conducted to determine the effects of two non-absorbed ASBTi compounds in the ZDF rat model after 3 weeks of treatment.
Animals were acclimatized for 5-7 days after arrival. […] The 2nd set of study was initiated after completion of the 1st. Test compound formulation prepared every other day and stored at 4° C. […] After 3rd week of treatment blood samples were collected by cardiac puncture from fasted animals for blood chemistry analysis: ALAT, ASAT, GGT, Alkaline Phosphatase and total Bile Acids. Tests were performed in contract clinical laboratory (Liver Profile SA320, Antech Diagnostics, Orange Country, Calif.).
Blood was collected by tail vein bleed weekly and after 3 weeks of treatment by cardiopuncture for serum tests. Data for each group is presented as the Mean Value±SEM. Statistically evaluation by t-test: *P<0.05, **P<0.01,***P<0.001 vs. vehicle group.

Structure (SMILES) | Cholesterol 7a-hydroxylase, % change from vehicle group ([1]; 1 mg/kg/day) | Cholesterol 7a-hydroxylase ([1]; 1 mg/kg/day) | Cholesterol 7a-hydroxylase, % change from vehicle group ([1]; 4 mg/kg/day) | Cholesterol 7a-hydroxylase ([1]; 4 mg/kg/day) | Cholesterol 7a-hydroxylase, % change from vehicle group ([1]; 12 mg/kg/day) | Cholesterol 7a-hydroxylase ([1]; 12 mg/kg/day) | Cholesterol 7a-hydroxylase, % change from vehicle group ([1]; 30 mg/kg/day) | Cholesterol 7a-hydroxylase ([1]; 30 mg/kg/day) | Time to significantly lowered SBA levels after dosing ([2]; 0.05 mg/kg orally 1 hour after feeding) | Serum bile acids, mean ([2]; 0.05 mg/kg p.o. at 60 min, 120 min) | Serum bile acids, mean ([2]; 0.05 mg/kg p.o. at 60 min, −30 min) | Serum bile acids, mean ([2]; 0.2 mg/kg p.o. at 60 min, 30 min) | Onset time to significant SBA lowering ([2]; 1 mg/kg vs ED50 dose 0.2 mg/kg) | Threshold dose, dog SBA model ([2]; administered orally 1 hour after feeding) | Plasma aspartate aminotransferase (ASAT) [3] | GLP-2 in plasma [4] | Plasma alanine aminotransferase (ALAT) [5] | Plasma alkaline phosphatase (ALP) [6]
CCCCC1(CCCC)CS(=O)(=O)c2ccc(N(C)C)cc2[C@@H](c2ccc(OCc3ccc(C[N+]45CCN(CC4)CC5)cc3)cc2)[C@H]1O [LUM001] | (+28) % | 114 ± 18 pmol/mg/min | (+101) % | 179 ± 22 pmol/mg/min | (+219) % | 284 ± 41 pmol/mg/min | (+378) % | 425 ± 58 pmol/mg/min | 1 to 2 h | 6.5* μg/ml | 1.4 µg/mL | 9.1 µg/mL | did not shorten the onset time | 0.05 mg/kg |  |  |  | 
CCCC[C@]1(CC)CS(=O)(=O)c2ccc(N(C)C)cc2[C@@H](c2cccc(NC(=O)N[C@@H]3O[C@H](COS(=O)(=O)[O-])[C@@H](O)[C@H](OCc4ccccc4)[C@H]3O)c2)[C@H]1O.CCO.O.[K+] [LUM002, potassium((2R,3R,4S,5R,6R)-4-benzyloxy-6-{3-[3-((3S,4R,5R)-3-butyl-7-dimethylamino-3-ethyl-4-hydroxy-1,1-dioxo-2,3,4,5-tetrahydro-1H-benzo[b]thiepin-5-yl)-phenyl]-ureido}-3,5-dihydroxy-tetrahydro-pyran-2-ylmethyl)sulphate ethanolate, hydrate] |  |  |  |  |  |  |  |  |  |  |  |  |  |  | statistically significant reduction in ASAT | significant elevations in GLP2 at higher doses | Neither LUM002 nor SC-435 caused statistically significant reductions | significant reductions in ALP
